According to patent US12209087B2, “AKT1 modulators” (Alterome Therapeutics, Inc., priority 2022, dated 2025):
Read-outs that look alike come from different tables or passages of the source.

Target: T1, full length AKT E17K (Homo sapiens, UniProt P31749, E17K)
T1 construct: host or cells: HEK-293 (ATCC CRL-1573)
Test: NanoBRET Target Engagement (TE) Assay
Assay type: cell-based
Settings: read-out: AKT1 E17K IC50
In short: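 Compound and tracer incubated 2 h before luminescence at donor 450 nm and acceptor 600 nm, with extracellular signal inhibited. EC50 by sigmoidal variable-slope regression.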

[1] = competitive tracer displacement in living cells
[2] = competitive displacement of tracer in cells

T1 sequence (P31749 whole entry E17K): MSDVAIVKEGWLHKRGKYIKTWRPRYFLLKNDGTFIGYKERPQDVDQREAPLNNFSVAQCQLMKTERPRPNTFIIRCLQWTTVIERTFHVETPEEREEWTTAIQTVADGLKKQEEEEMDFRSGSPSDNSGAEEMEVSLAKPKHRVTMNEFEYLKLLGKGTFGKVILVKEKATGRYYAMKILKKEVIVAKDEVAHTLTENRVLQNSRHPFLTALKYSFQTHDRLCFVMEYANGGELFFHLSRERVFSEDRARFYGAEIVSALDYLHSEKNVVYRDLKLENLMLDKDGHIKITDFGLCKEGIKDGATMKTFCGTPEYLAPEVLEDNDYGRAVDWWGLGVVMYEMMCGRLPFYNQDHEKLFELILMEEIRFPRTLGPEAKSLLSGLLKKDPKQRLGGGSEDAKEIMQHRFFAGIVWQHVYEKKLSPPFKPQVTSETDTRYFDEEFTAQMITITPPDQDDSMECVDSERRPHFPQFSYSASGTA

IC50 [1] | IC50 [2] | Structure (SMILES)
< 15 nM |  | N#Cc1nccc(NC2CCN(Cc3ccc(-n4c(-c5cccnc5N)nc5ccc(-c6ccccc6Cl)nc54)cc3)CC2)n1 [Example 305, 4-((1-(4-(2-(2-Aminopyridin-3-yl)-5-(2-chlorophenyl)-3H-imidazo[4,5-b]pyridin-3-yl)benzyl)piperidin-4-yl)amino)pyrimidine-2-carbonitrile]
15 to 60 nM |  | N#Cc1ccnc(NC2CCN(Cc3ccc(-n4c(-c5cccnc5N)nc5ccc(-c6ccccc6Cl)nc54)cc3)CC2)n1 [Example 306, 2-((1-(4-(2-(2-Aminopyridin-3-yl)-5-(2-chlorophenyl)-3H-imidazo[4,5-b]pyridin-3-yl)benzyl)piperidin-4-yl)amino)pyrimidine-4-carbonitrile]
60 to 600 nM |  | N#Cc1cc(NC2CCN(Cc3ccc(-n4c(-c5cccnc5N)nc5ccc(-c6ccccc6Cl)nc54)cc3)CC2)ncn1 [Example 307, 6-((1-(4-(2-(2-Aminopyridin-3-yl)-5-(2-chlorophenyl)-3H-imidazo[4,5-b]pyridin-3-yl)benzyl)piperidin-4-yl)amino)pyrimidine-4-carbonitrile]
< 15 nM |  | N#Cc1nccc(NC2CCN(Cc3ccc(-n4c(-c5cccnc5N)nc5ccc(-c6ccc(Cl)cc6)nc54)cc3)CC2)n1 [Example 308, 4-((1-(4-(2-(2-Aminopyridin-3-yl)-5-(4-chlorophenyl)-3H-imidazo[4,5-b]pyridin-3-yl)benzyl)piperidin-4-yl)amino)pyrimidine-2-carbonitrile]
15 to 60 nM |  | N#Cc1ccnc(N2CCN(Cc3ccc(-n4c(-c5cccnc5N)nc5ccc(-c6cccc(F)c6)nc54)cc3)CC2)n1 [Example 309, 2-(4-(4-(2-(2-Aminopyridin-3-yl)-5-(3-fluorophenyl)-3H-imidazo[4,5-b]pyridin-3-yl)benzyl)piperazin-1-yl)pyrimidine-4-carbonitrile]
< 15 nM |  | N#Cc1cc(N2CCN(Cc3ccc(-n4c(-c5cccnc5N)nc5ccc(-c6cccc(F)c6)nc54)cc3)CC2)ncn1 [Example 310, 6-(4-(4-(2-(2-Aminopyridin-3-yl)-5-(3-fluorophenyl)-3H-imidazo[4,5-b]pyridin-3-yl)benzyl)piperazin-1-yl)pyrimidine-4-carbonitrile]
< 15 nM |  | N#Cc1cc(NC2CCN(Cc3ccc(-n4c(-c5cccnc5N)nc5ccc(-c6cccc(F)c6)nc54)cc3)CC2)ncn1 [Example 311, 6-((1-(4-(2-(2-Aminopyridin-3-yl)-5-(3-fluorophenyl)-3H-imidazo[4,5-b]pyridin-3-yl)benzyl)piperidin-4-yl)amino)pyrimidine-4-carbonitrile]
< 15 nM |  | N#Cc1ncnc(N2CCN(Cc3ccc(-n4c(-c5cccnc5N)nc5ccc(-c6ccccc6F)nc54)cc3)CC2)n1 [Example 312, 4-(4-(4-(2-(2-Aminopyridin-3-yl)-5-(2-fluorophenyl)-3H-imidazo[4,5-b]pyridin-3-yl)benzyl)piperazin-1-yl)-1,3,5-triazine-2-carbonitrile]
< 15 nM |  | N#Cc1ccnc(NC2CCN(Cc3ccc(-n4c(-c5cccnc5N)nc5ccc(-c6ccccc6F)nc54)cc3)CC2)n1 [Example 313, 2-((1-(4-(2-(2-Aminopyridin-3-yl)-5-(2-fluorophenyl)-3H-imidazo[4,5-b]pyridin-3-yl)benzyl)piperidin-4-yl)amino)pyrimidine-4-carbonitrile]
< 15 nM |  | N#Cc1cc(N2CCN(Cc3ccc(-n4c(-c5cccnc5N)nc5ccc(-c6ccccc6F)nc54)cc3)CC2)ncn1 [Example 314, 6-(4-(4-(2-(2-Aminopyridin-3-yl)-5-(2-fluorophenyl)-3H-imidazo[4,5-b]pyridin-3-yl)benzyl)piperazin-1-yl)pyrimidine-4-carbonitrile]
15 to 60 nM |  | N#Cc1cc(NC2CCN(Cc3ccc(-n4c(-c5cccnc5N)nc5ccc(-c6ccccc6F)nc54)cc3)CC2)ncn1 [Example 315, 6-((1-(4-(2-(2-Aminopyridin-3-yl)-5-(2-fluorophenyl)-3H-imidazo[4,5-b]pyridin-3-yl)benzyl)piperidin-4-yl)amino)pyrimidine-4-carbonitrile]
< 15 nM |  | N#Cc1nccc(NC2CCN(Cc3ccc(-n4c(-c5cccnc5N)nc5ccc(-c6ccccc6F)nc54)cc3)CC2)n1 [Example 316, 4-((1-(4-(2-(2-Aminopyridin-3-yl)-5-(2-fluorophenyl)-3H-imidazo[4,5-b]pyridin-3-yl)benzyl)piperidin-4-yl)amino)pyrimidine-2-carbonitrile]
60 to 600 nM |  | N#Cc1nccc(N2CCN(Cc3ccc(-n4c(-c5cccnc5N)nc5ccc(N6CCCNC(=O)C6)nc54)cc3)CC2)n1 [Example 317, 4-(4-(4-(2-(2-Aminopyridin-3-yl)-5-(3-oxo-1,4-diazepan-1-yl)-3H-imidazo[4,5-b]pyridin-3-yl)benzyl)piperazin-1-yl)pyrimidine-2-carbonitrile]
 | 15 to 60 nM | N#Cc1nccc(NC2CCN(Cc3ccc(-n4c(-c5cccnc5N)nc5ccc(N6CCCNC(=O)C6)nc54)cc3)CC2)n1 [Example 318, 4-((1-(4-(2-(2-Aminopyridin-3-yl)-5-(3-oxo-1,4-diazepan-1-yl)-3H-imidazo[4,5-b]pyridin-3-yl)benzyl)piperidin-4-yl)amino)pyrimidine-2-carbonitrile]
 | 60 to 600 nM | N#Cc1ccc(-c2ccc3nc(-c4cccnc4N)n(-c4ccc(CN5CCN(c6nccc(C#N)n6)CC5)cc4)c3n2)cc1 [Example 319, 2-(4-(4-(2-(2-Aminopyridin-3-yl)-5-(4-cyanophenyl)-3H-imidazo[4,5-b]pyridin-3-yl)benzyl)piperazin-1-yl)pyrimidine-4-carbonitrile]
 | < 15 nM | N#Cc1ccc(-c2ccc3nc(-c4cccnc4N)n(-c4ccc(CN5CCC(Nc6ccnc(C#N)n6)CC5)cc4)c3n2)cc1 [Example 320, 4-((1-(4-(2-(2-Aminopyridin-3-yl)-5-(4-cyanophenyl)-3H-imidazo[4,5-b]pyridin-3-yl)benzyl)piperidin-4-yl)amino)pyrimidine-2-carbonitrile]
 | 60 to 600 nM | N#Cc1ccc(-c2ccc3nc(-c4cccnc4N)n(-c4ccc(CN5CCC(Nc6nccc(C#N)n6)CC5)cc4)c3n2)cc1 [Example 321, 2-((1-(4-(2-(2-Aminopyridin-3-yl)-5-(4-cyanophenyl)-3H-imidazo[4,5-b]pyridin-3-yl)benzyl)piperidin-4-yl)amino)pyrimidine-4-carbonitrile]
 | 15 to 60 nM | N#Cc1ccnc(N2CCN(Cc3ccc(-n4c(-c5cccnc5N)nc5ccc(-c6ccccc6C#N)nc54)cc3)CC2)n1 [Example 322, 2-(4-(4-(2-(2-Aminopyridin-3-yl)-5-(2-cyanophenyl)-3H-imidazo[4,5-b]pyridin-3-yl)benzyl)piperazin-1-yl)pyrimidine-4-carbonitrile]
 | 600 to 10000 nM | N#Cc1nccc(NC2CCN(Cc3ccc(-n4c(-c5cccnc5N)nc5ccc(N6CCNC(=O)CC6)nc54)cc3)CC2)n1 [Example 323, 4-((1-(4-(2-(2-Aminopyridin-3-yl)-5-(5-oxo-1,4-diazepan-1-yl)-3H-imidazo[4,5-b]pyridin-3-yl)benzyl)piperidin-4-yl)amino)pyrimidine-2-carbonitrile]
 | < 15 nM | N#Cc1nccc(N2CCN(Cc3ccc(-n4c(-c5cccnc5N)nc5ccc(-c6ccccc6Cl)nc54)cc3)CC2)n1 [Example 324, 4-(4-(4-(2-(2-Aminopyridin-3-yl)-5-(2-chlorophenyl)-3H-imidazo[4,5-b]pyridin-3-yl)benzyl)piperazin-1-yl)pyrimidine-2-carbonitrile]
 | 15 to 60 nM | N#Cc1ccnc(N2CCN(Cc3ccc(-n4c(-c5cccnc5N)nc5ccc(-c6ccccc6Cl)nc54)cc3)CC2)n1 [Example 325, 2-(4-(4-(2-(2-Aminopyridin-3-yl)-5-(2-chlorophenyl)-3H-imidazo[4,5-b]pyridin-3-yl)benzyl)piperazin-1-yl)pyrimidine-4-carbonitrile]
 | 15 to 60 nM | N#Cc1cc(N2CCN(Cc3ccc(-n4c(-c5cccnc5N)nc5ccc(-c6ccccc6Cl)nc54)cc3)CC2)ncn1 [Example 326, 6-(4-(4-(2-(2-Aminopyridin-3-yl)-5-(2-chlorophenyl)-3H-imidazo[4,5-b]pyridin-3-yl)benzyl)piperazin-1-yl)pyrimidine-4-carbonitrile]
 | 60 to 600 nM | N#Cc1ncc(C(=O)N2CCN(Cc3ccc(-n4c(-c5cccnc5N)nc5ccc(-c6ccccc6)nc54)cc3)CC2)s1 [Example 327, 5-(4-(4-(2-(2-Aminopyridin-3-yl)-5-phenyl-3H-imidazo[4,5-b]pyridin-3-yl)benzyl)piperazine-1-carbonyl)thiazole-2-carbonitrile]
 | < 15 nM | N#Cc1ncnc(N2CCN(Cc3ccc(-n4c(-c5cccnc5N)nc5ccc(-c6ccccc6)nc54)cc3)CC2)n1 [Example 328, 4-(4-(4-(2-(2-aminopyridin-3-yl)-5-phenyl-3H-imidazo[4,5-b]pyridin-3-yl)benzyl)piperazin-1-yl)-1,3,5-triazine-2-carbonitrile]
 | 15 to 60 nM | N#Cc1nccc(N2CCN(Cc3ccc(-n4c(-c5cccnc5N)nc5ccc(C6=CCCCC6)nc54)cc3)CC2)n1 [Example 329, 4-(4-(4-(2-(2-Aminopyridin-3-yl)-5-(cyclohex-1-en-1-yl)-3H-imidazo[4,5-b]pyridin-3-yl)benzyl)piperazin-1-yl)pyrimidine-2-carbonitrile]
 | < 15 nM | N#Cc1nccc(N2CCN(Cc3ccc(-n4c(-c5cccnc5N)nc5ccc(C6=CCOCC6)nc54)cc3)CC2)n1 [Example 330, 4-(4-(4-(2-(2-Aminopyridin-3-yl)-5-(3,6-dihydro-2H-pyran-4-yl)-3H-imidazo[4,5-b]pyridin-3-yl)benzyl)piperazin-1-yl)pyrimidine-2-carbonitrile]
 | < 15 nM | N#Cc1cccc(-c2ccc3nc(-c4cccnc4N)n(-c4ccc(CN5CCN(c6ccnc(C#N)n6)CC5)cc4)c3n2)c1 [Example 331, 4-(4-(4-(2-(2-Aminopyridin-3-yl)-5-(3-cyanophenyl)-3H-imidazo[4,5-b]pyridin-3-yl)benzyl)piperazin-1-yl)pyrimidine-2-carbonitrile]
